# According to the supplement of paper PMC13380429:
# Assays:
# Settings in all cases: 72 h
# [1] = tested on: Caco-2; assay: cell viability relative to DMSO; higher = less toxic
# [2] = tested on: Vero E6; assay: as above
# [3] = tested on: Calu-3; assay: as above
# [4] = tested on: U2OS; assay: as above
# [5] = tested on: HepG2; assay: as above
# [6] = tested on: Caco-2; assay: drug sensitivity score (DSS) for viability; higher = more toxic; extreme values may be limits of the assay
# [7] = tested on: Vero E6; assay: as above
# [8] = tested on: Calu-3; assay: as above
# [9] = tested on: U2OS; assay: as above
# [10] = tested on: HepG2; assay: as above
# [11] = tested on: Caco-2; assay: relative viability EC50 (midpoint between 100% and the lowest measured viability); higher = less toxic
# [12] = tested on: Vero E6; assay: as above
# [13] = tested on: Calu-3; assay: as above
# [14] = tested on: U2OS; assay: as above
# [15] = tested on: HepG2; assay: as above
SMILES,cell viability ([1]; 1 nM) [%],cell viability ([1]; 10 nM) [%],cell viability ([1]; 100 nM) [%],cell viability ([1]; 1000 nM) [%],cell viability ([1]; 10000 nM) [%],cell viability ([2]; 1 nM) [%],cell viability ([2]; 10 nM) [%],cell viability ([2]; 100 nM) [%],cell viability ([2]; 1000 nM) [%],cell viability ([2]; 10000 nM) [%],cell viability ([3]; 1 nM) [%],cell viability ([3]; 10 nM) [%],cell viability ([3]; 100 nM) [%],cell viability ([3]; 1000 nM) [%],cell viability ([3]; 10000 nM) [%],cell viability ([4]; 1 nM) [%],cell viability ([4]; 10 nM) [%],cell viability ([4]; 100 nM) [%],cell viability ([4]; 1000 nM) [%],cell viability ([4]; 10000 nM) [%],cell viability ([5]; 1 nM) [%],cell viability ([5]; 10 nM) [%],cell viability ([5]; 100 nM) [%],cell viability ([5]; 1000 nM) [%],cell viability ([5]; 10000 nM) [%],drug sensitivity score [6],drug sensitivity score [7],drug sensitivity score [8],drug sensitivity score [9],drug sensitivity score [10],relative viability EC50 [11] [µM],relative viability EC50 [12] [µM],relative viability EC50 [13] [µM],relative viability EC50 [14] [µM],relative viability EC50 [15] [µM]
COc1ccc(-c2cc(=O)c3c(OC)c(OC)c(OC)c(OC)c3o2)cc1 [tangeritin],95.1,89.6,99,103,91.7,91.8,98.7,92.4,98,97,106,99.6,103,100,92.3,98.5,94.3,98.9,97.4,89.8,94.2,101,95.2,107,105,0,0,0,0,0,> 10,> 10,> 10,> 10,> 10
CCN(CC)C(=O)N[C@H]1C[C@@H]2c3cccc4[nH]cc(c34)C[C@H]2N(C)C1 [terguride],88.6,93.3,108,97.2,99.5,105,106,104,99.8,97,106,97.4,95.2,105,115,96.4,95.3,94.5,99.1,94.7,104,105,95.9,92.9,102,0,0,0,0,0,> 10,> 10,> 10,> 10,> 10
Cc1ccsc1C(=CCCN1CCC[C@@H](C(=O)O)C1)c1sccc1C [tiagabine],93.5,97.9,102,92.3,106,98.2,100,92.4,104,106,117,103,99.8,98.1,100,101,94.2,101,98,94.2,96,103,97.3,103,98.6,0,0,0,0,0,> 10,> 10,> 10,> 10,> 10
CCS(=O)(=O)CCn1c([N+](=O)[O-])cnc1C [tinidazole],104,77.8,99,108,93.1,100,102,91.7,97.6,106,95.2,96.6,98.4,98.2,99.9,96.3,94.8,97.1,92,98.3,94.1,109,85.5,118,86.8,0,0,0,0,0,> 10,> 10,> 10,> 10,> 10
COc1ccc(N2CCOCC2)c2sc(NC(=O)N3CCC(C)(O)CC3)nc12 [tozadenant],90.8,95.5,110,96.1,98,94.5,106,90.6,94.3,101,87.7,94.1,87.3,101,97.4,103,95.7,102,98.9,103,85.8,99.4,109,99.7,98.2,0,0,0,0,0,> 10,> 10,> 10,> 10,> 10
O=C(O)/C=C/CO [trans-4-hydroxycrotonic-acid],96.2,93.5,97.6,103,99.8,97,102,94.8,101,106,109,95.3,102,97.1,100,98.3,99.7,102,98.2,98.9,94.7,92,98,113,102,0,0,0,0,0,> 10,> 10,> 10,> 10,> 10
CCCCCC(C)N (stereo not given) [tuaminoheptane],90.7,89.6,95.9,96.8,87.6,96.4,103,97.9,95,94.4,90.3,98.6,109,107,104,100,101,97.5,99.9,96.4,103,94.9,83,88.8,90.8,0,0,0,0,4.1,> 10,> 10,> 10,> 10,> 10
COc1ccccc1N1CCN(CCCNc2cc(=O)n(C)c(=O)n2C)CC1 [urapidil],92.1,96.4,97.9,101,104,100,100,98.8,98.6,102,96.7,98.5,96.4,102,107,91.1,97.5,95.2,101,103,105,90.1,107,95.8,95,0,0,0,0,0,> 10,> 10,> 10,> 10,> 10
NC(N)=O [urea],96.4,93.4,102,94.5,108,97.8,100,104,92.3,103,100,92.1,93.8,114,89.3,95.8,97.9,98.6,101,97.2,82.1,86.1,90.2,86.5,94.2,0,0,0,0,0,> 10,> 10,> 10,> 10,> 10
Cc1onc(-c2ccccc2)c1-c1ccc(S(N)(=O)=O)cc1 [valdecoxib],103,97.5,98,93.4,93.6,102,99.1,106,93.8,99.5,95.6,104,105,96.9,106,96.5,94.9,97.8,99.5,98.5,89.6,95.3,97.5,96,96.1,0,0,0,0,0,> 10,> 10,> 10,> 10,> 10
CC(C)(C)c1ccc(S(=O)(=O)Nc2ccc(Cl)cc2C(=O)c2cc[n+]([O-])cc2)cc1 [vercirnon],89.6,97.4,87.4,110,100,98.2,97.4,94.7,95.6,106,95.4,99.9,99.7,93,96.3,97.7,97.5,97.1,104,104,93.4,93.7,104,106,89.4,0,0,0,0,0,> 10,> 10,> 10,> 10,> 10
CC[C@]1(O)C[C@@H]2CN(CCc3c([nH]c4ccccc34)[C@@](C(=O)OC)(c3cc4c(cc3OC)N(C)[C@H]3[C@@](O)(C(N)=O)[C@H](O)[C@]5(CC)C=CCN6CC[C@]43[C@@H]65)C2)C1 [vindesine],93.8,72.7,48.5,41.2,40.3,96.4,95.3,83.3,33.6,27.3,93.8,70.6,61.4,47,45.9,98.7,73.5,31.6,26.4,22.3,92.9,64.8,43.2,35.8,37.2,20.6,14.3,17.8,25.7,23.5,0.0121,0.219,0.0122,0.018,0.0085
Cn1nc(-c2ccc(C(F)(F)F)cc2)nc2c(=O)n(C)c(=O)nc1-2 [walrycin-B],96.6,99.2,99.3,61.8,7.5,102,100,102,101,34.4,109,108,108,98,48.5,105,107,100,98,1.8,108,101,84.7,51.3,1.6,10.2,3.5,3,5.7,11.6,1.15,3.26,2.87,3.02,0.88
